Source: patent US5447925A, “Antibiotic compounds” (Imperial Chemical Industries PLC, priority 1991, dated 1995)
≈ marks a conversion by molar mass, not a printed value.

What was measured:
Format in all cases: cell-based
[1] = tested on: P. aeruginosa PU21 (101028); experiment: MIC by agar dilution, P. aeruginosa PU21 (101028); conditions: Pseudomonas aeruginosa, Diagnostic Sensitivity Test agar, inoculum 10^4 CFU/spot
Source text: (§1) The pharmaceutically acceptable carbapenem compounds of the present invention are useful antibacterial agents having a broad spectrum of activity in vitro against standard laboratory microorganisms, both Gram-negative and Gram-positive, which are used to screen for activity against pathogenic bacteria. The antibacterial spectrum and potency of a particular compound may be determined in a standard test system. In particular the carbapenems of the present invention show good stability to beta-lactamases and have particularly high activity in vitro against strains of Pseudomonas aeruginosa and other Gram-negative aerobic bacteria.
(§2) The following results were obtained for representative compounds on a standard in vitro test system using Diagnostic Sensitivity Test agar medium. The antibacterial activity is described in terms of the minimum inhibitory concentration (M1C) determined by the agar-dilution technique with an inoculum size of 10^4 CFU/spot.

[2] = tested on: Ent. cloacae P99^- (401054); experiment: MIC by agar dilution, Ent. cloacae P99^- (401054); conditions: Enterobacter cloacae
Source text: as §1, §2

[3] = tested on: Serr. marcesens (421003); experiment: MIC by agar dilution, Serr. marcesens (421003); conditions: Diagnostic Sensitivity Test agar, inoculum 10^4 CFU/spot
Source text: as §1, §2

[4] = tested on: Pr. morganii (433001); experiment: MIC by agar dilution, Pr. morganii (433001); conditions: Morganella morganii, Diagnostic Sensitivity Test agar, inoculum 10^4 CFU/spot
Source text: as §1, §2

[5] = tested on: E. coli DCO (341098); experiment: MIC by agar dilution, E. coli DCO (341098); conditions: Escherichia coli, Diagnostic Sensitivity Test agar, inoculum 10^4 CFU/spot
Source text: as §1, §2

[6] = tested on: St. aureus 147N (601052); experiment: MIC by agar dilution, St. aureus 147N (601052); conditions: Staphylococcus aureus, Diagnostic Sensitivity Test agar, inoculum 10^4 CFU/spot
Source text: as §1, §2

[7] = tested on: S. dublin (369001); experiment: MIC by agar dilution, S. dublin (369001); conditions: Salmonella enterica, Diagnostic Sensitivity Test agar, inoculum 10^4 CFU/spot
Source text: as §1, §2

[8] = tested on: Strep. pyogenes (681018); experiment: MIC by agar dilution, Strep. pyogenes (681018); conditions: Streptococcus pyogenes, Diagnostic Sensitivity Test agar, inoculum 10^4 CFU/spot
Source text: as §1, §2

[9] = tested on: P. aeruginosa 18S (101024); experiment: MIC by agar dilution, P. aeruginosa 18S (101024); conditions: Pseudomonas aeruginosa, Diagnostic Sensitivity Test agar, inoculum 10^4 CFU/spot
Source text: as §1, §2

[10] = tested on: P. aeruginosa 18S IMIR (101148); experiment: MIC by agar dilution, P. aeruginosa 18S IMIR (101148); conditions: Pseudomonas aeruginosa
Source text: as §1, §2

[11] = tested on: B. fragilis AMP R (542008); experiment: MIC by agar dilution, B. fragilis AMP R (542008); conditions: Bacteroides fragilis, Diagnostic Sensitivity Test agar, inoculum 10^4 CFU/spot
Source text: as §1, §2

C[C@@H](O)[C@H]1C(=O)N2C(C(=O)O)=C(S[C@@H]3CN[C@H](CNC(=O)c4cc(O)c(O)c(C#N)c4)C3)[C@H](C)[C@H]12 [Example 3, (1R,5R,6S,8R,2'S,4'S)-2-(2-(5-cyano-3,4-dihydroxybenzoylaminomethyl)pyrrolidin-4-ylthio)-6-(1-hydroxyethyl)-1-methyulcarbapenem-3carboxylic acid]
MIC [1]: 0.25 µg/mL (≈ 0.497 µM)
MIC [2]: 0.03 µg/mL (≈ 0.0597 µM)
MIC [3]: 0.25 µg/mL (≈ 0.497 µM)
MIC [4]: 0.5 µg/mL (≈ 0.995 µM)
MIC [5]: 0.03 µg/mL (≈ 0.0597 µM)
MIC [6]: 0.125 µg/mL (≈ 0.249 µM)
MIC [7]: 0.06 µg/mL (≈ 0.119 µM)
MIC [8]: 0.008 µg/mL (≈ 0.0159 µM)
MIC [9]: 0.125 µg/mL (≈ 0.249 µM)
MIC [10]: 0.125 µg/mL (≈ 0.249 µM)
MIC [11]: 4 µg/mL (≈ 7.96 µM)
